Assay [1] deals with T1, PPARγ (Homo sapiens, UniProt P37231).
T1 sequence (P37231 1-505): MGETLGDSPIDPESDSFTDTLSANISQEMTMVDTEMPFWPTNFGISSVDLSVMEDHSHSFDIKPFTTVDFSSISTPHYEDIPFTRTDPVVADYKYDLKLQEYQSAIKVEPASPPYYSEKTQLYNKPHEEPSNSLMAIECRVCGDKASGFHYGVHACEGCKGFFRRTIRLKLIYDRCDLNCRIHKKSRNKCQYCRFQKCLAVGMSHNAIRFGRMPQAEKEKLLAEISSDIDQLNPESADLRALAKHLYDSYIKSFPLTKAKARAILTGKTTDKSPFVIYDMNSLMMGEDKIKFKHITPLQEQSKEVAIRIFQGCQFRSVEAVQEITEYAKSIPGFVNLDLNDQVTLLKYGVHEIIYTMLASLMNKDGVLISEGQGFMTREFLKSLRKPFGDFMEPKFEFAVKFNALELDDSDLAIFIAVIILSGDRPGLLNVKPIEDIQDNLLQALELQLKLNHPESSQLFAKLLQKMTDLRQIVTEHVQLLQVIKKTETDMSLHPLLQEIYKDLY
Format: cell-based. Set-up: endogenous in cells; host or cells: SHSY5Y, SHEP1 / SHEP-1 (neuroblastoma). Conditions: 18 hours. On the procedure: To determine if C19H24N3O5S5Pr activates PPARγ, SHSY5Y and SHEP1 neuroblastoma cells were transiently co-transfected with a 3×PPRE luciferase plasmid and renilla plasmid for transfection efficiency. Forty eight hours following transfection, the cells were exposed to increased concentrations (0 to 10 μM) of 15d-PGJ2 and C19H24N3O5S5Pr for 18 hours. The fold increase in luciferase activity correlates with the PPARγ activity of the cell. PPARγ activity is determined by calculating the RLU/renilla/μg total protein.
To assess if C19H24N3O5S5Pr activation of PPARγ is dependent on expression of PPARγ neuroblastoma cells, neuroblastoma cells SHEP1 and SHSY5Y were transiently co-transfected with a 3×PPRE luciferase plasmid and renilla plasmid for transfection efficiency. Forty eight hours following transfection, cells were exposed to increased concentrations (0 to 20 μM) of C19H24N3O5S5Pr for 18 hours. PPARγ activity was calculated as luciferase RLU/renilla/μg total protein.

Assay [2] has as its system PTEN, RhoB, MnSOD. Conditions: HCT-116 tumors, 100 μg or 200 μg per mouse, 21 days of treatment. On the procedure:
HCT-116 colorectal tumor cells were grafted onto nude mice. Tumor-bearing mice were then treated with solvent control or different concentrations of (100 μg, 200 μg) C19H24N3O5S5Pr. After 21 days of treatment, the mice were sacrificed, after which tumors were harvested and proteins extracted for Western Blot analysis.

Structures are written as SMILES.

For `CS(C)=O.CS(C)=O.[O-][n+]1ccccc1[S-].[O-][n+]1ccccc1[S-].[O-][n+]1ccccc1[S-].[Pr+3]` [C19H24N3O5S5Pr, praseodymium (2-mercaptopyridine N-oxide)(dimethylsulfoxide)], the “PPARγ activation, SHEP1 versus SHSY5Y cells” value in assay [1] (0 to 20 μM) was “activates PPARγ better in SHEP1 cells, than in SHSY5Y cells”. For the same compound, the “PPARγ activation (luciferase RLU/renilla/μg total protein)” value in assay [1] (SHSY5Y and SHEP1 cells in 10% serum, 0 to 10 μM) is given as “significant activation of PPARγ”. Also, in assay [2], the “PTEN, RhoB and MnSOD protein expression in tumors” value was “regulated”.

Source of the values: patent publication US8691851B2, “Lanthanide metal complexes useful in treating cancer” (National University of Singapore, priority 2009, dated 2014).
